Results published in patent US10596193B2, “Copper (I) complexes with glycine, pyruvate, and succinate” (C LAB PHARMA INTERNATIONAL, S.A., priority 2013, dated 2020).

System: lymphoblasts from autistic donors with mitochondrial dysfunction (A)
Details: 500 μM copper (I) glycinate, measured by oxygen consumption rate, vs cells without the copper (I) complex, FIG. 17 panel B
Experimental: ATP-linked respiration, proton leak, maximal respiratory capacity, and reserve capacity were determined as measured by the cells' oxygen consumption rate.

NCC(=O)[O-].[Cu+] [copper (I) glycinate]
proton leak: significantly reduced proton leak
